HELM strings list units from the 5' end as sugar, base in round brackets, then linkage (d deoxyribose, r ribose, m 2'-O-methyl, p phosphodiester). Strings are as the collection lists them; they lack the last nucleoside at the 3' end of the tested compound. [moe] = 2'-O-(2-methoxyethyl) (MOE); [sp] = phosphorothioate linkage; [m5C] = 5-methylcytosine
These substances were tested against SCN2A (assay: mouse, dose not given). Details: ASO.

In order of falling 3 h FOB score:
1. RNA1{[moe]([m5C])[sp].[moe](T)p.[moe](G)p.[moe](T)p.[moe](T)p.d(T)[sp].d(G)[sp].d(G)[sp].d(G)[sp].d(T)[sp].d([m5C])[sp].d(T)[sp].d([m5C])[sp].d(T)[sp].d(T)[sp].[moe](A)p.[moe](G)p.[moe]([m5C])[sp].[moe](T)}$$$$ (last 3' nucleoside missing)  2.67 score 0-7
2. RNA1{[moe]([m5C])[sp].[moe]([m5C])p.[moe](A)p.[moe](G)p.[moe](T)p.d(T)[sp].d(T)[sp].d(T)[sp].d(T)[sp].d(T)[sp].d([m5C])[sp].d(A)[sp].d(T)[sp].d(T)[sp].d(G)[sp].[moe]([m5C])p.[moe](A)p.[moe](T)[sp].[moe]([m5C])}$$$$ (last 3' nucleoside missing)  1.33 score 0-7
3. RNA1{[moe]([m5C])[sp].[moe](T)p.[moe](G)p.[moe](G)p.[moe](A)p.d([m5C])[sp].d([m5C])[sp].d(G)[sp].d(T)[sp].d([m5C])[sp].d(T)[sp].d([m5C])[sp].d(T)[sp].d(T)[sp].d(T)[sp].[moe]([m5C])p.[moe](T)p.[moe](T)[sp].[moe](A)}$$$$ (last 3' nucleoside missing)  1 score 0-7
4. RNA1{[moe]([m5C])[sp].[moe](T)p.[moe](G)p.[moe](G)p.d(A)[sp].d([m5C])[sp].d([m5C])[sp].d(G)[sp].d(T)[sp].d([m5C])[sp].d(T)[sp].d([m5C])[sp].d(T)[sp].d(T)[sp].[moe](T)p.[moe]([m5C])p.[moe](T)p.[moe](T)[sp].[moe](A)}$$$$ (last 3' nucleoside missing)  1 score 0-7
5. RNA1{[moe]([m5C])[sp].[moe](T)p.[moe](G)p.[moe]([m5C])[sp].d(A)[sp].d(T)[sp].d(G)[sp].d(T)[sp].d(A)[sp].d(A)[sp].d([m5C])[sp].d([m5C])[sp].[moe](T)p.[moe](T)p.[moe](T)p.[moe](A)[sp].[moe](T)}$$$$ (last 3' nucleoside missing)  1 score 0-7
6. RNA1{[moe]([m5C])[sp].[moe](T)p.[moe]([m5C])p.[moe](T)p.[moe](T)p.[moe](T)p.d([m5C])[sp].d(T)[sp].d(T)[sp].d(A)[sp].d(T)[sp].d(T)[sp].d(T)[sp].d([m5C])[sp].d(T)[sp].d(G)[sp].[moe](T)p.[moe](T)[sp].[moe](T)}$$$$ (last 3' nucleoside missing)  1 score 0-7
7. RNA1{[moe]([m5C])[sp].[moe]([m5C])p.[moe](A)p.[moe]([m5C])p.d(G)[sp].d(A)[sp].d([m5C])[sp].d(A)[sp].d(T)[sp].d(A)[sp].d(T)[sp].d(T)[sp].d(T)[sp].d(T)[sp].[moe](T)p.[moe]([m5C])p.[moe](T)p.[moe](A)[sp].[moe]([m5C])}$$$$ (last 3' nucleoside missing)  1 score 0-7
8. RNA1{[moe]([m5C])[sp].[moe](T)p.[moe](G)p.[moe](G)p.[moe]([m5C])p.d(T)[sp].d(A)[sp].d(T)[sp].d(A)[sp].d([m5C])[sp].d(T)[sp].d([m5C])[sp].d(A)[sp].d(T)[sp].d(T)[sp].[moe](G)p.[moe]([m5C])p.[moe](T)[sp].[moe]([m5C])}$$$$ (last 3' nucleoside missing)  0.67 score 0-7
9. RNA1{[moe]([m5C])[sp].[moe](T)p.[moe](G)p.[moe]([m5C])p.[moe](A)[sp].d(T)[sp].d(G)[sp].d(T)[sp].d(A)[sp].d(A)[sp].d([m5C])[sp].d([m5C])[sp].d(T)[sp].[moe](T)p.[moe](T)p.[moe](A)[sp].[moe](T)}$$$$ (last 3' nucleoside missing)  0.5 score 0-7
10. RNA1{[moe]([m5C])[sp].[moe](T)p.[moe](A)p.[moe](T)p.[moe](T)[sp].d(T)[sp].d(T)[sp].d(A)[sp].d(T)[sp].d(A)[sp].d(A)[sp].d(A)[sp].d(T)[sp].[moe](G)p.[moe]([m5C])p.[moe]([m5C])[sp].[moe](G)}$$$$ (last 3' nucleoside missing)  0 score 0-7
11. RNA1{[moe]([m5C])[sp].[moe](T)p.[moe](G)p.[moe]([m5C])p.[moe](A)p.[moe](T)[sp].d(G)[sp].d(T)[sp].d(A)[sp].d(A)[sp].d([m5C])[sp].d([m5C])[sp].d(T)[sp].d(T)[sp].[moe](T)p.[moe](A)[sp].[moe](T)}$$$$ (last 3' nucleoside missing)  0 score 0-7
12. RNA1{[moe]([m5C])[sp].[moe](T)p.[moe](G)p.[moe]([m5C])p.[moe](A)p.[moe](T)p.d(G)[sp].d(T)[sp].d(A)[sp].d(A)[sp].d([m5C])[sp].d([m5C])[sp].d(T)[sp].d(T)[sp].d(T)[sp].d(A)[sp].[moe](T)p.[moe](A)[sp].[moe]([m5C])}$$$$ (last 3' nucleoside missing)  0 score 0-7
13. RNA1{[moe]([m5C])[sp].[moe](T)p.[moe](G)p.[moe]([m5C])p.[moe](A)p.d(T)[sp].d(G)[sp].d(T)[sp].d(A)[sp].d(A)[sp].d([m5C])[sp].d([m5C])[sp].d(T)[sp].d(T)[sp].d(T)[sp].[moe](A)p.[moe](T)p.[moe](A)[sp].[moe]([m5C])}$$$$ (last 3' nucleoside missing)  0 score 0-7
14. RNA1{[moe]([m5C])[sp].[moe](T)p.[moe](G)p.[moe]([m5C])p.d(A)[sp].d(T)[sp].d(G)[sp].d(T)[sp].d(A)[sp].d(A)[sp].d([m5C])[sp].d([m5C])[sp].d(T)[sp].d(T)[sp].[moe](T)p.[moe](A)p.[moe](T)p.[moe](A)[sp].[moe]([m5C])}$$$$ (last 3' nucleoside missing)  0 score 0-7
15. RNA1{[moe]([m5C])[sp].[moe](T)p.[moe]([m5C])p.[moe](T)p.[moe](T)p.d(T)[sp].d([m5C])[sp].d(T)[sp].d(T)[sp].d(A)[sp].d(T)[sp].d(T)[sp].d(T)[sp].d([m5C])[sp].d(T)[sp].[moe](G)p.[moe](T)p.[moe](T)[sp].[moe](T)}$$$$ (last 3' nucleoside missing)  0 score 0-7
16. RNA1{[moe]([m5C])[sp].[moe](T)p.[moe]([m5C])p.[moe](T)p.d(T)[sp].d(T)[sp].d([m5C])[sp].d(T)[sp].d(T)[sp].d(A)[sp].d(T)[sp].d(T)[sp].d(T)[sp].d([m5C])[sp].[moe](T)p.[moe](G)p.[moe](T)p.[moe](T)[sp].[moe](T)}$$$$ (last 3' nucleoside missing)  0 score 0-7
17. RNA1{[moe]([m5C])[sp].[moe]([m5C])p.[moe](A)p.[moe](G)p.d(T)[sp].d(T)[sp].d(T)[sp].d(T)[sp].d(T)[sp].d(T)[sp].d([m5C])[sp].d(A)[sp].d(T)[sp].d(T)[sp].[moe](G)p.[moe]([m5C])p.[moe](A)p.[moe](T)[sp].[moe]([m5C])}$$$$ (last 3' nucleoside missing)  0 score 0-7
18. RNA1{[moe]([m5C])[sp].[moe]([m5C])p.[moe](A)p.[moe](T)p.[moe](T)p.[moe](T)p.d([m5C])[sp].d(T)[sp].d(A)[sp].d(T)[sp].d(A)[sp].d(A)[sp].d([m5C])[sp].d(T)[sp].d([m5C])[sp].d(A)[sp].[moe](G)p.[moe]([m5C])[sp].[moe](A)}$$$$ (last 3' nucleoside missing)  0 score 0-7
19. RNA1{[moe]([m5C])[sp].[moe]([m5C])p.[moe](A)p.[moe](T)p.[moe](T)p.d(T)[sp].d([m5C])[sp].d(T)[sp].d(A)[sp].d(T)[sp].d(A)[sp].d(A)[sp].d([m5C])[sp].d(T)[sp].d([m5C])[sp].[moe](A)p.[moe](G)p.[moe]([m5C])[sp].[moe](A)}$$$$ (last 3' nucleoside missing)  0 score 0-7
20. RNA1{[moe]([m5C])[sp].[moe]([m5C])p.[moe](A)p.[moe](T)p.d(T)[sp].d(T)[sp].d([m5C])[sp].d(T)[sp].d(A)[sp].d(T)[sp].d(A)[sp].d(A)[sp].d([m5C])[sp].d(T)[sp].[moe]([m5C])p.[moe](A)p.[moe](G)p.[moe]([m5C])[sp].[moe](A)}$$$$ (last 3' nucleoside missing)  0 score 0-7
21. RNA1{[moe]([m5C])[sp].[moe]([m5C])p.[moe](A)p.[moe]([m5C])p.[moe](G)p.[moe](A)p.d([m5C])[sp].d(A)[sp].d(T)[sp].d(A)[sp].d(T)[sp].d(T)[sp].d(T)[sp].d(T)[sp].d(T)[sp].d([m5C])[sp].[moe](T)p.[moe](A)[sp].[moe]([m5C])}$$$$ (last 3' nucleoside missing)  0 score 0-7
22. RNA1{[moe]([m5C])[sp].[moe]([m5C])p.[moe](A)p.[moe]([m5C])p.[moe](G)p.[moe]([m5C])p.d(T)[sp].d(T)[sp].d(A)[sp].d([m5C])[sp].d(A)[sp].d(T)[sp].d([m5C])[sp].d(A)[sp].d(A)[sp].d(A)[sp].[moe]([m5C])p.[moe](A)[sp].[moe](T)}$$$$ (last 3' nucleoside missing)  0 score 0-7
23. RNA1{[moe]([m5C])[sp].[moe]([m5C])p.[moe](A)p.[moe]([m5C])p.[moe](G)p.d(A)[sp].d([m5C])[sp].d(A)[sp].d(T)[sp].d(A)[sp].d(T)[sp].d(T)[sp].d(T)[sp].d(T)[sp].d(T)[sp].[moe]([m5C])p.[moe](T)p.[moe](A)[sp].[moe]([m5C])}$$$$ (last 3' nucleoside missing)  0 score 0-7
24. RNA1{[moe]([m5C])[sp].[moe]([m5C])p.[moe](A)p.[moe]([m5C])p.[moe](G)p.d([m5C])[sp].d(T)[sp].d(T)[sp].d(A)[sp].d([m5C])[sp].d(A)[sp].d(T)[sp].d([m5C])[sp].d(A)[sp].d(A)[sp].[moe](A)p.[moe]([m5C])p.[moe](A)[sp].[moe](T)}$$$$ (last 3' nucleoside missing)  0 score 0-7
25. RNA1{[moe]([m5C])[sp].[moe]([m5C])p.[moe](A)p.[moe]([m5C])p.d(G)[sp].d([m5C])[sp].d(T)[sp].d(T)[sp].d(A)[sp].d([m5C])[sp].d(A)[sp].d(T)[sp].d([m5C])[sp].d(A)[sp].[moe](A)p.[moe](A)p.[moe]([m5C])p.[moe](A)[sp].[moe](T)}$$$$ (last 3' nucleoside missing)  0 score 0-7
26. RNA1{[moe]([m5C])[sp].[moe]([m5C])p.[moe](G)p.[moe](A)p.[moe](A)p.[moe](T)p.d(T)[sp].d([m5C])[sp].d(T)[sp].d(A)[sp].d(T)[sp].d(T)[sp].d(T)[sp].d(T)[sp].d(A)[sp].d(T)[sp].[moe](A)p.[moe](A)[sp].[moe](A)}$$$$ (last 3' nucleoside missing)  0 score 0-7

From the OligoGym collection
